In PubChem BioAssay (NCI):
Where “and” joins values, the source holds several entries; their conditions need not be identical. Equal entries are not always repeated.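 Each compound was tested at five concentrations against cells in 96-well plates for 48 hours. GI50 is the concentration that inhibits growth by half. TGI: total growth inhibition.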

Each molecule was assayed on MDA-MB-468 breast (assay: NCI tumour cell line growth inhibition, 48 h).

Row | Structure (SMILES) | GI50 | TGI
1 | COc1ccc(/C(=C2\O[C@@H]([C@H]3COC(C)(C)O3)[C@H]3OC(C)(C)O[C@@H]23)c2cc(OC)c(OC)c(OC)c2)cc1O | 14500 nM | 34100 nM
2 | CC1=C(CCCNS(C)(=O)=O)C2=C(C)C3(CC3)[C@@](C)(O)C(=O)C2=C1 | 354 nM | 1660 nM
3 | N#CSCC1CC(O)(c2ccccc2)C(c2ccccc2)C(c2ccc(Cl)cc2)O1 (centres undefined) | 1440 nM | 2850 nM
4 | CNC(=O)OCc1c(COC(=O)NC)c(-c2ccc(Cl)c(Cl)c2)n2c1SCC2 | 264 nM | 1270 nM
5 | O=C(Nc1ccc(N2CCNCC2)cc1)c1[nH]ncc1Nc1cc(Oc2ccccc2)ncn1 | 1990 nM | 4830 nM
6 | CCCCC(=O)OCC1OC(n2cnc3c(=S)nc[nH]c32)C(OC(=O)CCCC)C1OC(=O)CCCC (centres undefined) | 215 nM | 1520 nM
7 | Cc1ccc(S(=O)(=O)N(CCOc2ccc(/C(N)=N/Cl)cc2)CCOc2ccc(/C(N)=N\Cl)cc2)cc1 | 3980 nM | 21400 nM
8 | COc1ccc(C2=NN(C(=O)c3cc(OC)c(OC)c(OC)c3)C(c3ccc(C#N)cc3)C2)cc1OC (centres undefined) | 419 nM | 2890 nM
9 | CCCCCc1ccc(S(=O)(=O)Nc2cccc(-c3csc(NC(=O)CCCCCN4CCN(C)CC4)n3)c2)cc1 | 1790 nM | 3460 nM
10 | Cc1ccc2c(c1)C(=O)/C(=C/c1ncc([N+](=O)[O-])n1C)O2 | 1850 nM | 4340 nM
11 | O=[N+]([O-])/C=C\c1ccc(Cl)c(Cl)c1 | 1790 nM | 3760 nM
12 | O=C1c2c(c3c4ccccc4n(CCCCCCBr)c3c3[nH]c4ccccc4c23)C(=O)N1O | 2820 nM | 8180 nM
13 | CCCCC/C(C=C(C#N)C#N)=C/c1ccccc1 | 10200 nM | 27200 nM
14 | CN1CCN(Cc2ccc(NC(=O)c3cncc(C#Cc4cnc(N)c5ccc(C#N)cc45)c3)cc2C(F)(F)F)CC1 | 60.8 nM | 627 nM
15 | CCNCCNc1cc(-c2ccc(C(=O)OC)cc2)c(C#N)c2nc3ccccc3n12 | 1370 nM | 2860 nM
16 | N#C/C(=C1C=C/C(=N/O)C(Br)=C/1)c1ccccc1 | 1530 nM | 15000 nM
17 | Cn1cc(-c2cnc3ccc(NC(=O)Nc4ccc(F)c(Br)c4)cc3n2)cn1 | 1410 nM | 3860 nM
18 | Oc1ccc(CSc2nnc(-c3cnccn3)n2-c2ccccc2)c2cccnc12 | 970 nM | > 20000 nM
19 | COc1cc(OC)cc(-c2ccc(-c3ccc(C(=N)N)o3)o2)c1 | 2400 nM | 4730 nM
20 | COc1cccc(/C=N/NC(=O)c2ccccc2Nc2ccnc(C(F)(F)F)c2)c1O | 218 nM | 9620 nM
21 | O=C1/C(=C/c2ccc(Br)cc2)C=C(c2ccccc2)N1CCc1ccccc1 | 1270 nM | 7800 nM
22 | COc1cc(/C=N/n2cnc3oc(-c4ccccc4)cc3c2=N)cc(CN2CCCC2)c1O | 2010 nM | 5080 nM
23 | O=C(O)CCCCC(CCSCc1ccccc1)SCc1ccccc1 (centres undefined) | 45100 nM | > 91400 nM

Row | Structure (SMILES) | GI50 | TGI
24 | COc1cc(O)c2c(c1)/C=C/C[C@H](O)[C@H](O)C(=O)/C=C\C[C@H](C)OC2=O | 3850 nM and 5600 nM | 13300 nM and 20700 nM
25 | O=c1oc2ccc(F)cc2c(=O)n1-c1ccc(F)cc1F | 2760 nM | 7780 nM
26 | O=C(NCCOCCOCCNc1cccc2c1C(=O)N(C1CCCNC1=O)C2=O)c1cc2c(o1)C(=O)c1ccccc1C2=O (centres undefined) | 1610 nM | 4430 nM
27 | CN(C)CCNc1cc(-c2ccccc2)nc2ccccc12 | 3850 nM | 16800 nM
28 | NCC(=O)NS(=O)(=O)OC[C@H]1O[C@@H](n2cnc3c(N)ncnc32)[C@H](O)[C@@H]1O | 742 nM | 2560 nM
29 | COc1ccc2c(c1)c(-c1nc(-c3cn(C)c4ncccc34)cs1)cn2CCCN1CCCCC1 | 1800 nM | 3550 nM
30 | CN(C)CCNC(=O)c1ccc(-c2nc3ccc4[nH]ncc4c3c3c2CCC3)cc1 | 448 nM | 1490 nM
31 | C[C@]12CC[C@H](O)CC1=CC[C@@H]1[C@@H]2CC[C@]2(C)C(c3cccnc3)=CC[C@@H]12 | 26900 nM | > 100000 nM
32 | O=C(CI)NC1Oc2ccccc2-c2oc(=O)c(-c3ccccc3)cc21 (centres undefined) | 1790 nM | 4320 nM
33 | O=C1c2cccc(NCCN=Cc3cc(O)ccc3O)c2C(=O)c2c(NCCN=Cc3cc(O)ccc3O)cccc21 | 584 nM | 2370 nM
34 | O=C(CN1CCOCC1)Nc1ccc(Cn2nnc3c2C(=O)c2nnn(Cc4ccc(NC(=O)CN5CCOCC5)cc4)c2C3=O)cc1 | 208 nM | 550 nM
35 | Cc1ccc(CS/C(=C\c2ccc([N+](=O)[O-])cc2)C(=O)c2ccc(F)cc2)cc1 | 3410 nM | 16400 nM
36 | Nc1ccn(C2O[C@H](CO)[C@@H](O)[C@@H]2O)c(=O)n1 (some centres undefined) | > 100000 nM | > 100000 nM
37 | CC[CH2][Pb]([CH2]CC)([CH2]CC)[O]C(=O)C(F)(F)F | 55.1 nM | 153 nM
38 | COc1cccc(-c2cc(=O)c3cc(N(C)C)ccc3[nH]2)c1 |  | > 100000 nM and 59200 nM
39 | COc1cc(/C=C/c2cc(/C=C/c3ccc(O)c(OC)c3)n(-c3ccccc3)n2)ccc1O | 271 nM | 908 nM
40 | COC(=O)CCCCN=Cc1c(O)c(O)c(C(C)C)c2cc(C)c(-c3c(C)cc4c(C(C)C)c(O)c(O)c(C=NCCCCC(=O)OC)c4c3O)c(O)c12 | 780 nM | 3060 nM
41 | Cc1c(F)c(N)c2c(=O)cc(-c3ccc(NC(=O)CN(C)C)c(F)c3)oc2c1F | 57.7 nM | 394 nM
42 | CC1=C(C(=O)Nc2ccc3[nH]ncc3c2)C(c2ccc3ccccc3c2)CC(=O)N1 (centres undefined) | 13900 nM | > 25000 nM
43 | Cn1c(N2NC(=O)C(N=Nc3ccc(S(N)(=O)=O)cc3)C2=O)nc(-c2ccco2)c(C#N)c1=O (centres undefined) | 1610 nM | 6730 nM
44 | COc1ccc2[nH]c(O)c(/C=c3/cc4c(c(-c5cc(OC)c(OC)c(OC)c5)n3)=Nc3ccccc3-4)c2c1 | 2620 nM | 11700 nM
45 | CCOc1cccc(/C=N/NC(=O)c2ccccc2Nc2ccnc(C(F)(F)F)c2)c1O | 271 nM | 9280 nM
